Assay results taken from ChEMBL document CHEMBL1130105 (J Med Chem, 1997).

Molecular target: T1, Cholecystokinin receptor type A (Rattus norvegicus, UniProt P30551)
T1 sequence (P30551 whole entry): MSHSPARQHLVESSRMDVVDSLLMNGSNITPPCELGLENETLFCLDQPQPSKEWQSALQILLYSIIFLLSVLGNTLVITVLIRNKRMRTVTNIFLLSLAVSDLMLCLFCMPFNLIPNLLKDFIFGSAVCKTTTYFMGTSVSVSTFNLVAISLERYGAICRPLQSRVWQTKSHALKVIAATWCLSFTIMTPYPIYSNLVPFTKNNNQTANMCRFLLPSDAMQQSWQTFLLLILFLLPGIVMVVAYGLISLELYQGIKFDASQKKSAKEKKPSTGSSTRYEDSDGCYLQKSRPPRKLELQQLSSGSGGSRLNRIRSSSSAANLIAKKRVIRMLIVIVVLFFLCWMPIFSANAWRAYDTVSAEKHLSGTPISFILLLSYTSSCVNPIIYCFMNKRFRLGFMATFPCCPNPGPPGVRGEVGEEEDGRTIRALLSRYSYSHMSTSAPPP
Assay: Inhibition of ligand binding to Cholecystokinin type A receptor from rat pancreatic tissue.

Q: For `CCCN1C(=O)[C@H](NC(=O)Nc2ccc3c(c2)CCC3)N=C([C@H]2CC(C)(C)CCN2)c2ccccc21`, which IC50 is on record?
A: Its IC50 is 4020 nM.

Q: `CCN(CC)C(=O)CN1C(=O)[C@H](NC(=O)Nc2cccc(C)c2)N=C(c2cccc[n+]2C)c2ccccc21` was tested. Which IC50 did it give?
A: Its IC50 is 1750 nM.

Q: With `CCCN1C(=O)[C@H](NC(=O)Nc2cccc(C)c2)N=C([C@H]2CCC(C)(C)CCN2)c2ccccc21` as the compound, how does the IC50 read?
A: The IC50 was 1510 nM.

Q: With `CCCN1C(=O)[C@H](NC(=O)Nc2cccc(C)c2)N=C([C@H]2CCC(C)(C)CCN2C)c2ccccc21` as the compound, how does the IC50 read?
A: The IC50 was 3540 nM.

Q: For `CN1C(=O)[C@H](NC(=O)Nc2ccc3c(c2)CCC3)N=C([C@H]2CCC(C)(C)CCN2)c2ccccc21`, which IC50 is on record?
A: The IC50 was 6490 nM.

Q: With `CCCN1C(=O)[C@H](NC(=O)Nc2cccc(C)c2)N=C([C@@H]2CCCCN2)c2ccccc21` as the compound, how does the IC50 read?
A: Its IC50 is 3000 nM.

Q: Which IC50 does the source give for `CCCN1C(=O)[C@H](NC(=O)Nc2cccc(C)c2)N=C([C@H]2CC(C)(C)CCN2)c2ccccc21` here?
A: Its IC50 is 3090 nM.

Q: With `CCCN1C(=O)[C@H](NC(=O)Nc2cccc(C)c2)N=C([C@H]2CCCCN2C)c2ccccc21` as the compound, how does the IC50 read?
A: Its IC50 is 2090 nM.

Q: How did the IC50 turn out when `CCCN1C(=O)[C@H](NC(=O)Nc2cccc(C)c2)N=C([C@H]2CCCCN2)c2ccccc21` was run?
A: The IC50 was 3000 nM.

Q: Which IC50 does the source give for `Cc1cccc(NC(=O)N[C@@H]2N=C([C@H]3CCC(C)(C)CCN3)c3ccccc3N(C)C2=O)c1` here?
A: Its IC50 is 1390 nM.

Molecular target: Gastrin/cholecystokinin type B receptor (Cavia porcellus)
Assay: Inhibition of ligand binding to Cholecystokinin type B receptor from guinea pig cortical membrane.

Q: How did the IC50 turn out when `CCN(CC)C(=O)CN1C(=O)C(NC(=O)Nc2cccc(C)c2)N=C(c2ccccn2)c2ccccc21` (configuration not stated) was run?
A: Its IC50 is 0.56 nM.

Q: How did the IC50 turn out when `Cc1cccc(NC(=O)NC2N=C(c3ccccn3)c3ccccc3N(C)C2=O)c1` (configuration not stated) was run?
A: The IC50 was 66 nM.
